Results reported in the NIST ThermoML archive (doi:10.1021/je2010209).

Assay: xn = mol fraction of the nth substance listed
Conditions: 101 kPa, Liquid; for speed of sound: Sing-around technique in a fixed-path interferometer; for mass density: Vibrating tube method

COCCO [2-methoxyethan-1-ol] + CCCCn1cc[n+](C)c1.F[B-](F)(F)F
Conditions	mass density, 288.15 K [kg/m3]	mass density, 293.15 K [kg/m3]	mass density, 298.15 K [kg/m3]	speed of sound, 288.15 K [m/s]	speed of sound, 293.15 K [m/s]	speed of sound, 298.15 K [m/s]	speed of sound, 303.15 K [m/s]
x2 = 0	969.794	965.063	960.447	1380	1367	1351	1337
x2 = 0.0509	1000.6	996.158	991.715	1411	1394	1378	1361
x2 = 0.1092	1030.06	1025.74	1021.41	1438	1422	1406	1391
x2 = 0.2052	1068.45	1064.33	1060.08	1474	1460	1446	1431
x2 = 0.3071	1099.91	1095.87	1091.76	1500	1486	1472	1457
x2 = 0.4025	1123.36	1119.42	1115.42	1521	1508	1494	1480
x2 = 0.5116	1145.2	1141.38	1137.55	1539	1527	1514	1501
x2 = 0.6257	1164.11	1160.35	1156.59	1553	1542	1530	1517
x2 = 0.7153	1176.88	1173.17	1169.47	1565	1554	1542	1530
x2 = 0.8088	1188.61	1184.96	1181.31	1574	1563	1551	1539
x2 = 0.9155	1199.86	1196.25	1192.64	1582	1571	1560	1548
